In article PMC6591272, “Midostaurin Reverses ABCB1-Mediated Multidrug Resistance, an in vitro Study” (Frontiers in Oncology, 2019):

Experiments:
[1] = biological target: T1, ABCB1 transporter (P-gp/MDR1) (Homo sapiens, UniProt P08183); assay: vanadate-sensitive ATPase assay in ABCB1-overexpressing membranes; supported by [3H]-paclitaxel efflux inhibition in KB-C2 cells; assay type: biochemical; set-up: cell membranes that overexpressed ABCB1
[2] = biological target: T1, ABCB1 transporter (P-gp/MDR1)

T1 sequence (P08183 whole entry): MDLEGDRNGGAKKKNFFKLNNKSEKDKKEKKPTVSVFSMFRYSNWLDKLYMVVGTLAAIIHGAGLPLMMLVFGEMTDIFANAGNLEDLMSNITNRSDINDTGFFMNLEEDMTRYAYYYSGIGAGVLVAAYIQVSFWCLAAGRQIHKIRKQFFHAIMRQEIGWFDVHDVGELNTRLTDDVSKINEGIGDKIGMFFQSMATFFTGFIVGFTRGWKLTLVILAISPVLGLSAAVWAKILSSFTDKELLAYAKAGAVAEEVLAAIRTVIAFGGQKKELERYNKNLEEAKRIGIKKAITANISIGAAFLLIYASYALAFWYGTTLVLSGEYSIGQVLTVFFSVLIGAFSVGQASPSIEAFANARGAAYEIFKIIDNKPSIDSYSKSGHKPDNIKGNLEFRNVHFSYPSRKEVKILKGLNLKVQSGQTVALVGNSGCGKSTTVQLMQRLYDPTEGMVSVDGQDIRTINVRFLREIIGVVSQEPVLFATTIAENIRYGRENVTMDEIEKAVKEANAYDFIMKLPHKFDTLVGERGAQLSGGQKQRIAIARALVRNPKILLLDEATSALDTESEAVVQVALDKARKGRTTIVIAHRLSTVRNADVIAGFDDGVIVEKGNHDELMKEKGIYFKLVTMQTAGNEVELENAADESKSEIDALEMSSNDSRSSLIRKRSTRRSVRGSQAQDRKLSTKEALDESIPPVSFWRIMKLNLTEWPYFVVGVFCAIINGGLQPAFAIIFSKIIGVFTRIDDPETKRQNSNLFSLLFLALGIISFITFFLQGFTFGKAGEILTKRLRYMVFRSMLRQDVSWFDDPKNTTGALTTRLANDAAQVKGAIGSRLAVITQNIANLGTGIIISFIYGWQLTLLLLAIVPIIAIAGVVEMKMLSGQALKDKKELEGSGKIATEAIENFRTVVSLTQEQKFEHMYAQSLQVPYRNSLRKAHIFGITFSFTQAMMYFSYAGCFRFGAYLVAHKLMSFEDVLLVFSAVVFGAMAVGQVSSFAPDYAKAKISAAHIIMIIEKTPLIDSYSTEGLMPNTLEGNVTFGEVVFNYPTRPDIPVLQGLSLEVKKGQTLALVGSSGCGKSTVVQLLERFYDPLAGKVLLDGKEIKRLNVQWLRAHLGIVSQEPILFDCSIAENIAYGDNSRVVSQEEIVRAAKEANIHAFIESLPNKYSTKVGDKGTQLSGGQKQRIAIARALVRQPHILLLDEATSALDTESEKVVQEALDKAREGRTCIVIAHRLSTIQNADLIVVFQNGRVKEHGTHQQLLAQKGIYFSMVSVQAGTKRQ

Compound	IC50 [1]	[3H]-paclitaxel accumulation and efflux in KB-C2 versus parental KB-3-1 cells [2]
CO[C@@H]1[C@H](N(C)C(=O)c2ccccc2)C[C@H]2O[C@]1(C)n1c3ccccc3c3c4c(c5c6ccccc6n2c5c31)C(=O)NC4 [midostaurin]	3.1 µM	
CC(=O)O[C@H]1C(=O)[C@@]2(C)[C@H]([C@H](OC(=O)c3ccccc3)[C@]3(O)C[C@H](OC(=O)[C@H](O)[C@@H](NC(=O)c4ccccc4)c4ccccc4)C(C)=C1C3(C)C)[C@]1(OC(C)=O)CO[C@@H]1C[C@@H]2O [paclitaxel]		midostaurin significantly decreased the efflux level of [^3H]-paclitaxel in ABCB1-overexpressing KB-C2 cells in a dose-dependent manner
